The values that follow are results of earlier work, collected in US20140032198A1, “APPLICATION OF MULTIDIMENSIONAL MATRIX FOR DRUG MOLECULAS DESIGN AND THE METHODOLOGIES FOR DRUG MOLECULAR DESIGN” (priority 2011, published 2014).

For this data set the following is noted: qualitative comparison within captopril series, historical data.
Regarding `CCC(=O)O[C@@H](O[P@](=O)(CCCCc1ccccc1)CC(=O)N1C[C@H](C2CCCCC2)C[C@H]1C(=O)O)C(C)C` [Fosinopril], the “toxicity and side effects profiles” value is reported as “relatively weaker”. On to Benazepril, for which the “toxicity and side effects profiles” value is “relatively weaker”.

On to `CCOC(=O)[C@H](CCc1ccccc1)N[C@@H](C)C(=O)N1Cc2ccccc2C[C@H]1C(=O)O` [Quinapril], for which the “toxicity and side effects profiles” value is “relatively weaker”. On to Lisinopril, for which the “toxicity and side effects profiles” value was “relatively weaker”. Take Ramipril: the “toxicity and side effects profiles” value was “best toxicity and side effects profiles”.
